# According to patent publication US20160052936A1, “SPIROINDOLINE DERIVATIVES FOR USE AS GONADOTROPIN-RELEASING HORMONE RECEPTOR ANTAGONISTS” (BAYER PHARMA AKTIENGESELLSCHAFT, priority 2013, published 2016):
# Target: T1, human GnRH receptor (Homo sapiens, UniProt P30968)
# T1 construct: host or cells: CHO cells stably expressing human GnRH receptor (line established by Prof. Thomas Gudermann)
# T1 sequence (P30968 1-328): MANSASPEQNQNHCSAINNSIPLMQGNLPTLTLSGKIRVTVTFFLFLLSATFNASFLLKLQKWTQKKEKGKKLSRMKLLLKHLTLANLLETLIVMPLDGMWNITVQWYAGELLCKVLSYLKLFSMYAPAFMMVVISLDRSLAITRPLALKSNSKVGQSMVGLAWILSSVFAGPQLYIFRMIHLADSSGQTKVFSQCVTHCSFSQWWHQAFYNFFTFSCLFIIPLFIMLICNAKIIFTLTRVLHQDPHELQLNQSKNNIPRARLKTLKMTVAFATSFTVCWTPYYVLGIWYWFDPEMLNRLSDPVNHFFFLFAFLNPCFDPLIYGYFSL
# Assay: IP-One HTRF assay with buserelin stimulation
# Type: cell-based
# Settings: CHO cells stably expressing human GnRH receptor; buserelin at EC80; read-out: Potency in IP-One HTRF assay with buserelin (at EC80) stimulation, given as IC50
# From the text: By using homogenous time-resolved fluorescence resonance energy transfer (HTRF), the generation of one component of the GnRH-R signalling cascade can be measured. After stimulation of CHO cells stably expressing human GnRH receptor (established by Prof. Thomas Gudermann, currently University of Marburg, Germany; supplied as frozen cell aliquots by Cell Culture Services, Hamburg, Germany) with the EC80 of the GnRH agonist buserelin, Gq protein-coupled receptor signalling cascade is activated resulting in PLC-dependent cleavage of PIP2 to Inositol-1,4,5-triphosphate (IP3) and Diacylglycerol. The second messenger IP3 is degraded intracellularly to myo-inositol. Inhibition of the final degradation step from Inositol-1-phosphate (IP1) to myo-inositol by addition of lithium chloride leads to accumulation of IP1 in the cells. In cell lysates, IP1 can be detected via an antibody-based HTRF detection technology, where IP1 can displace the FRET acceptor IP1-d2 from binding by Terbium-labelled anti-IP1 antibody as donor resulting in a signal decrease. Compounds were tested for their capability of inhibiting GnRH-R activation by buserelin. For all IP-One HTRF® assays reagents of Cisbio Bioassays (IP-One Tb Jumbo kit, #62IPAPEJ; Cisbio Bioassays, Bagnols sur Cèze Cedex, France) were used.
# For the assay, frozen cell aliquots were thawed and a cell suspension (3.33×10^6 cells/mL) containing IP1-d2 (dilution 1:40) was prepared and incubated at 37° C. After 1 h 3 μl of the cell suspension were added to 50 nl of a 100-fold concentrated solution of the test compound in DMSO pre-dispensed in a well of a white low-volume 384-well microtiter plate (Greiner Bio-One, Frickenhausen, Germany). […] Plates were incubated for 1 h at 37° C. and 5% carbon dioxide before the cells were lysed by adding 3 μl Terbium-labelled anti-IP1 antibody (1:40) diluted in Conjugate & Lysis buffer as supplied with the kit. After an incubation for 1 h at 22° C. to enable complete cell lysis and antibody binding to free IP1 or IP1-d2, plates were measured in an HTRF reader, e.g. a RUBYstar, PHERAstar (both BMG Labtechnologies, Offenburg, Germany) or a Viewlux (PerkinElmer LAS, Rodgau-Jügesheim, Germany).
# From the fluorescence emissions at 665 nm (FRET) and at 620 nm (background signal of Terbium-antibody), the ratio (emission at 665 nm divided by emission at 620 nm) was calculated and the data were normalized (reaction without test compound=0% inhibition; all other assay components except agonist=100% inhibition). On the same microtiter plate, compounds were tested at 10 different concentrations in the range of 20 μM to 1 nM (20 μM, 6.7 μM, 2.2 μM, 0.74 μM, 0.25 μM, 82 nM, 27 nM, 9.2 nM, 3.1 nM and 1 nM; dilution series prepared before the assay at the level of the 100-fold conc. stock solutions by serial 1:3 dilutions in 100% DMSO) in duplicate values for each concentration. By using an in-house software, the IC50 values were calculated by a 4 parameter fit.
# Within the meaning of the present invention the antagonist activity is reflected by the ability of a compound of the invention to antagonize human GnRH receptor stimulation in IP-One HTRF® assay at least three times the standard deviation over the background level.
row,SMILES,IC50 [nM]
1,"O=C(NCc1ncc(C(F)(F)F)cc1F)c1ccc2c(c1)C1(CCS(=O)(=O)CC1)C(C1CC1)N2S(=O)(=O)c1cccc(OC(F)(F)F)c1 (racemic) [Example 11, 2-cyclopropyl-N-{[3-fluoro-5-(trifluoromethyl)pyridin-2-yl]methyl}-1-{[3-(trifluoromethoxy)phenyl]sulfonyl}-1,2,2′,3′,5′,6′-hexahydrospiro[indole-3,4′-thiopyran]-5-carboxamide 1′,1′-dioxide]",760
2,"O=C(NCc1ncc(C(F)(F)F)cc1Cl)c1ccc2c(c1)C1(CCS(=O)(=O)CC1)C(C1CC1)N2S(=O)(=O)c1cccc(OC(F)(F)F)c1 (racemic) [Example 12, N-{[3-chloro-5-(trifluoromethyl)pyridin-2-yl]methyl}-2-cyclopropyl-1-{[3-(trifluoromethoxy)phenyl]sulfonyl}-1,2,2′,3′,5′,6′-hexahydrospiro[indole-3,4′-thiopyran]-5-carboxamide 1′,1′-dioxide]",219
3,"O=C(NCc1ncc(C(F)(F)F)cc1F)c1ccc2c(c1)C1(CCS(=O)(=O)CC1)C(C1CC1)N2S(=O)(=O)c1cccc(OC(F)F)c1 (racemic) [Example 13, 2-cyclopropyl-1-{[3-(difluoromethoxy)phenyl]sulfonyl}-N-{[3-fluoro-5-(trifluoromethyl)pyridin-2-yl]methyl}-1,2,2′,3′,5′,6′-hexahydrospiro[indole-3,4′-thiopyran]-5-carboxamide 1′,1′-dioxide]",423
4,"O=C(NCc1ncc(C(F)(F)F)cc1F)c1ccc2c(c1)C1(CCS(=O)(=O)CC1)C(C1CC1)N2S(=O)(=O)c1ccc(OC(F)F)cc1 (racemic) [Example 15, 2-cyclopropyl-1-{[4-(difluoromethoxy)phenyl]sulfonyl}-N-{[3-fluoro-5-(trifluoromethyl)pyridin-2-yl]methyl}-1,2,2′,3′,5′,6′-hexahydrospiro[indole-3,4′-thiopyran]-5-carboxamide 1′,1′-dioxide]",112
5,"O=C(NCc1ncc(C(F)(F)F)cc1Cl)c1ccc2c(c1)C1(CCS(=O)(=O)CC1)C(C1CC1)N2S(=O)(=O)c1ccc(OC(F)F)cc1 (racemic) [Example 16, N-{[3-chloro-5-(trifluoromethyl)pyridin-2-yl]methyl}-2-cyclopropyl-1-{[4-(difluoromethoxy)phenyl]sulfonyl}-1,2,2′,3′,5′,6′-hexahydrospiro[indole-3,4′-thiopyran]-5-carboxamide 1′,1′-dioxide]",37
6,"NC(=O)c1ccc(S(=O)(=O)N2c3ccc(C(=O)NCc4ncc(C(F)(F)F)cc4Cl)cc3C3(CCS(=O)(=O)CC3)C2C2CC2)cc1 (racemic) [Example 17, 1-[(4-carbamoylphenyl)sulfonyl]-N-{[3-chloro-5-(trifluoromethyl)pyridin-2-yl]methyl}-2-cyclopropyl-1,2,2′,3′,5′,6′-hexahydrospiro[indole-3,4′-thiopyran]-5-carboxamide 1′,1′-dioxide]",260
7,"O=C(NCc1ncc(C(F)(F)F)cc1F)c1ccc2c(c1)C1(CCS(=O)(=O)CC1)C(C1CC1)N2S(=O)(=O)c1ccc(Cl)cc1 (racemic) [Example 18, 1-[(4-chlorophenyl)sulfonyl]-2-cyclopropyl-N-{[3-fluoro-5-(trifluoromethyl)pyridin-2-yl]methyl}-1,2,2′,3′,5′,6′-hexahydrospiro[indole-3,4′-thiopyran]-5-carboxamide 1′,1′-dioxide]",65
8,"O=C(NCc1ncc(C(F)(F)F)cc1Cl)c1ccc2c(c1)C1(CCS(=O)(=O)CC1)C(C1CC1)N2S(=O)(=O)c1ccc(Cl)cc1 (racemic) [Example 19, 1-[(4-chlorophenyl)sulfonyl]-N-{[3-chloro-5-(trifluoromethyl)pyridin-2-yl]methyl}-2-cyclopropyl-1,2,2′,3′,5′,6′-hexahydrospiro[indole-3,4′-thiopyran]-5-carboxamide 1′,1′-dioxide]",31
9,"O=C(NCc1ncc(C(F)(F)F)cc1F)c1ccc2c(c1)C1(CCS(=O)(=O)CC1)[C@@H](C1CC1)N2S(=O)(=O)c1ccc(F)cc1 (single isomer, unassigned) [Example 1.2]",6990
10,"N#Cc1ccc(S(=O)(=O)N2c3ccc(C(=O)NCc4ncc(C(F)(F)F)cc4F)cc3C3(CCS(=O)(=O)CC3)C2C2CC2)cc1 (single isomer, unassigned) [Example 7.2]",57
11,"N#Cc1ccc(S(=O)(=O)N2c3ccc(C(=O)NCc4ncc(C(F)(F)F)cc4Cl)cc3C3(CCS(=O)(=O)CC3)[C@@H]2C2CC2)cc1 (single isomer, unassigned) [Example 8.1]",10
12,"N#Cc1ccc(S(=O)(=O)N2c3ccc(C(=O)NCc4ncc(C(F)(F)F)cc4Cl)cc3C3(CCS(=O)(=O)CC3)[C@H]2C2CC2)cc1 (single isomer, unassigned) [Example 8.2]",3560
13,"N#Cc1cccc(S(=O)(=O)N2c3ccc(C(=O)NCc4ncc(C(F)(F)F)cc4Cl)cc3C3(CCS(=O)(=O)CC3)[C@H]2C2CC2)c1 (single isomer, unassigned) [Example 10.2]",1970
14,"O=C(NCc1ncc(C(F)(F)F)cc1Cl)c1ccc2c(c1)C1(CCS(=O)(=O)CC1)C(C1CC1)N2S(=O)(=O)c1ccc(OC(F)F)cc1 (single isomer, unassigned) [Example 16.2]",879
15,"NC(=O)c1ccc(S(=O)(=O)N2c3ccc(C(=O)NCc4ncc(C(F)(F)F)cc4Cl)cc3C3(CCS(=O)(=O)CC3)C2C2CC2)cc1 (single isomer, unassigned) [Example 17.1]",> 20000
16,"O=C(NCc1ncc(C(F)(F)F)cc1F)c1ccc2c(c1)C1(CCS(=O)(=O)CC1)C(C1CC1)N2S(=O)(=O)c1ccc(Cl)cc1 (single isomer, unassigned) [Example 18.1]",31

# Tested on: not listed separately
# Assay: In vivo pharmacokinetics in rats
# Settings: Wistar, rat, plasma, po; male rats, 2 mg/kg p.o.
# Description: 2.4 In Vivo Pharmacokinetics in Rats
# For in vivo pharmacokinetic experiments test compounds were administered to male Wistar rats intravenously at a dose of 0.5 mg/kg and intragastral at a dose of 2 mg/kg formulated as solutions using solubilizers such as PEG400 or Solutol in well-tolerated amounts.
# For pharmacokinetics after intravenous administration test compounds were given as i.v. bolus and blood samples were taken at 2 min, 8 min, 15 min, 30 min, 45 min, 1 h, 2 h, 4 h, 7 h and 24 h after dosing. […] For pharmacokinetics after intragastral administration test compounds were given intragastral to fasted rats and blood samples were taken at 8 min, 15 min, 30 min, 45 min, 1 h, 2 h, 4 h, 7 h and 24 h after dosing. […] Blood was collected into Lithium-Heparintubes (Monovetten®, Sarstedt) and centrifuged for 15 min at 3000 rpm. An aliquot of 100 μL from the supernatant (plasma) was taken and precipitated by addition of 400 μL cold acetonitril and frozen at −20° C. over night. Samples were subsequently thawed and centrifuged at 3000 rpm, 4° C. for 20 minutes. Aliquots of the supernatants were taken for analytical testing using an Agilent 1200 HPLC-system with LCMS/MS detection. PK parameters were calculated by non-compartmental analysis using a PK calculation software.
# PK parameters derived from concentration-time profiles after i.v.: CLplasma: Total plasma clearance of test compound (in L/kg/h); CLblood: Total blood clearance of test compound: CLplasma*Cp/Cb (in L/kg/h) with Cp/Cb being the ratio of concentrations in plasma and blood. PK parameters calculated from concentration time profiles after i.g.: Cmax: Maximal plasma concentration (in mg/L); Cmaxnorm: Cmax divided by the administered dose (in kg/L); Tmax: Time point at which Cmax was observed (in h). Parameters calculated from both, i.v. and i.g. concentration-time profiles: AUCnorm: Area under the concentration-time curve from t=0 h to infinity (extrapolated) divided by the administered dose (in kg*h/L); AUC(0−tlast)norm: Area under the concentration-time curve from t=0 h to the last time point for which plasma concentrations could be measured divided by the administered dose (in kg*h/L); t½: terminal half-life (in h); F: oral bioavailability: AUCnorm after intragastral administration divided by AUCnorm after intravenous administration (in %).
row,SMILES,half-life [h]
1,"N#Cc1ccc(S(=O)(=O)N2c3ccc(C(=O)NCc4ncc(C(F)(F)F)cc4Cl)cc3C3(CCS(=O)(=O)CC3)[C@@H]2C2CC2)cc1 (single isomer, unassigned) [Example 8.1]",5

# Same assay, conditions: Wistar, rat, plasma, po; male rats, 2 mg/kg p.o.; AUCnorm intragastral / AUCnorm i.v. (0.5 mg/kg); read-out: F (oral bioavailability)
row,SMILES,bioavailability [%]
1,"N#Cc1ccc(S(=O)(=O)N2c3ccc(C(=O)NCc4ncc(C(F)(F)F)cc4Cl)cc3C3(CCS(=O)(=O)CC3)[C@@H]2C2CC2)cc1 (single isomer, unassigned) [Example 8.1]",17
